Laboratory results from patent EP4596547A1, “HETEROCYCLIC COMPOUND AND HARMFUL ARTHROPOD-CONTROLLING COMPOSITION CONTAINING SAME” (priority 2022, dated 2024).

Assays:
Format in all cases: in vivo
[1] = test system: diamondback moth (Plutella xylostella); test: Test method 4: sprayed cabbage foliage cut out, second instar larvae of diamondback moth released; details: foliar, 120 h, sprayed 20 mL/seedling, five second instar larvae, after 5 days, 25°C
Procedure: A test compound is formed into a formulation according to the method described in Formulation Example 1, and water containing 0.03% by volume of Shindain (registered trademark) is added thereto to prepare a diluted solution containing the test compound at a predetermined concentration.
A cabbage (Brassicae oleracea) seedling (2 to 3 true leaf stage) planted in a container is sprayed with the diluted solution at a rate of 20 mL/seedling. Thereafter, the foliage portion of the seedling is cut out and placed in a container on which filter paper is laid. Thereto are released five second instar larvae of diamondback moth (Plutella xylostella). After 5 days, the number of surviving insects is counted, and the mortality is determined from the following equation. [formula]

[2] = test system: diamondback moth (Plutella xylostella); test: Test method 10: sprayed cabbage seedling, third instar larvae of diamondback moth released; details: 144 h, sprayed 20 mL/seedling, 10 third instar larvae, after 6 days, 25°C
Procedure: A test compound is formed into a formulation according to the method described in Formulation Example 5, and water containing 0.03% by volume of Shindain (registered trademark) is added thereto to prepare a diluted solution containing the test compound at a predetermined concentration.
A cabbage (Brassicae oleracea) seedling (3 to 4 true leaf stage) planted in a container is sprayed with the diluted solution at a rate of 20 mL/seedling. Thereafter, 10 third instar larvae of diamondback moth (Plutella xylostella) are released. After 6 days, the number of surviving insects is counted, and the mortality is determined from the following equation. [formula]

[3] = test system: cotton aphids (Aphis gossypii); test: Test method 1: foliar spray on cucumber seedlings inoculated with cotton aphids (formulation per Formulation Example 1); details: 120 h, 500 ppm, sprayed 10 mL/seedling one day after inoculation, surviving insects examined after 5 days, 25°C, read-out: control value
[4] = test system: cotton aphids (Aphis gossypii); test: Test method 11: foliar spray on cucumber seedlings inoculated with cotton aphids (formulation per Formulation Example 5); details: 120 h, sprayed 10 mL/seedling one day after inoculation, after 5 days, 25°C, read-out: control value
[5] = test system: Culex pipiens pallens; test: Test method 12: last-instar larvae of Culex pipiens pallens released into diluted solution; details: 24 h, 30 last-instar larvae, one day later, 25°C
Procedure: The test compound is formulated according to the method described in Formulation Example 1, and water is added thereto to prepare a diluted solution containing the test compound at a predetermined concentration. 30 last-instar larvae of Culex pipiens pallens are released into the diluted solution, and the state of the larvae of Culex pipiens is examined one day later to determine the Mortality. The mortality is calculated by the following equation. [formula]

| Structure (SMILES) | mortality at 500 ppm [1] [%] | mortality at 200 ppm [2] [%] | mortality at 500 ppm [3] [%] | mortality at 50 ppm [4] [%] | mortality at 200 ppm [4] [%] | mortality at 3.5 ppm [5] [%] | mortality at 50 ppm ([2]; 50 ppm) [%] |
| --- | --- | --- | --- | --- | --- | --- | --- |
| CCSc1c(N(C)C(=O)c2cc(C(F)(F)F)nn2C)nc2ccc(I)cn12 [compound 3] | ≥ 80 | ≥ 80 | ≥ 90 | ≥ 90 | ≥ 90 | > 90 |  |
| CCSc1c(N(C)C(=O)c2ccc(C(F)(F)F)o2)nc2ccc(I)cn12 [compound 5] | ≥ 80 |  | ≥ 90 | ≥ 90 | ≥ 90 | > 90 |  |
| CCSc1c(N(C)C(=O)c2cnc(C(F)(F)F)s2)nc2ccc(Br)cn12 [compound 8] | ≥ 80 |  | ≥ 90 | ≥ 90 | ≥ 90 | > 90 |  |
| CCSc1c(N(C)C(=O)c2cnc(C(F)(F)F)s2)nc2ccc(C(F)(F)F)cn12 [compound 9] | ≥ 80 |  | ≥ 90 | ≥ 90 | ≥ 90 | > 90 |  |
| CCSc1c(N(C)C(=O)c2cnc(C(F)(F)F)s2)nc2cc(I)ccn12 [compound 10] | ≥ 80 | ≥ 80 | ≥ 90 | ≥ 90 | ≥ 90 | > 90 |  |
| CCSc1c(N(C)C(=O)c2nc(C(F)(F)F)cs2)nc2ccc(I)cn12 [compound 13] | ≥ 80 |  | ≥ 90 |  | ≥ 90 | > 90 |  |
| CCSc1c(N(C)C(=O)c2ccn(C(F)F)n2)nc2ccc(I)cn12 [compound 19] |  |  | ≥ 90 | ≥ 90 | ≥ 90 | > 90 |  |
| CCSc1c(N(C)C(=O)c2cnn(C(F)F)c2)nc2ccc(I)cn12 [compound 24] | ≥ 80 |  | ≥ 90 |  | ≥ 90 | > 90 |  |
| CCSc1c(N(C)C(=O)c2cn(CC(F)(F)F)nn2)nc2ccc(I)cn12 [compound 27] |  | ≥ 80 | ≥ 90 |  | ≥ 90 | > 90 |  |
| CCS(=O)(=O)c1c(N(C)C(=O)c2cc(C(F)(F)F)nn2C)nc2ccc(I)cn12 [compound 36] |  | ≥ 80 |  | ≥ 90 | ≥ 90 |  | ≥ 80 |
| CCS(=O)(=O)c1c(N(C)C(=O)c2nc(C(F)(F)F)cs2)nc2ccc(I)cn12 [compound 50] | ≥ 80 |  |  |  |  |  |  |
| CCS(=O)(=O)c1c(N(C)C(=O)c2cc(Br)n(C)n2)nc2ccc(I)cn12 [compound 53] | ≥ 80 |  | ≥ 90 | ≥ 90 | ≥ 90 |  |  |
| CCS(=O)(=O)c1c(N(C)C(=O)c2cc(OC(F)F)n(C)n2)nc2ccc(I)cn12 [compound 55] |  |  |  |  |  | > 90 |  |
| CCS(=O)(=O)c1c(N(C)C(=O)c2ccn(C3CC3)n2)nc2ccc(I)cn12 [compound 57] | ≥ 80 |  | ≥ 90 |  | ≥ 90 | > 90 |  |
| CC[S+]([O-])c1c(N(C)C(=O)c2cnn(C(F)(F)F)c2)nc2ccc(I)cn12 (stereo not drawn) [compound 60] | ≥ 80 |  | ≥ 90 |  |  |  |  |
| CCS(=O)(=O)c1c(N(C)C(=O)c2cnn(C(F)(F)F)c2)nc2ccc(I)cn12 [compound 61] | ≥ 80 |  | ≥ 90 |  |  |  |  |
| CCS(=O)(=O)c1c(N(C)C(=O)c2cnn(C(F)F)c2)nc2ccc(I)cn12 [compound 63] | ≥ 80 |  | ≥ 90 |  |  |  |  |
